# Measurements reported in article PMC3597565, “Display of Multimeric Antimicrobial Peptides on the Escherichia coli Cell Surface and Its Application as Whole-Cell Antibiotics” (PLoS ONE, 2013).
# Peptide text beside a SMILES is read from it.
# Tests used:
# Type in all cases: cell-based
# [1] = system: Bacillus subtilis (ATCC 62037); conditions: ATCC 62037, 3 h; for MIC: pH 7.4
# Description: (§1) The antimicrobial activity of each peptide was determined against eight representative microorganisms, including Gram-positive and Gram-negative bacteria and fungi, using the broth micro dilution assay as described by Park et al. with a slight modification. Briefly, mid-logarithmic phase cells were diluted to 1×10^5 cfu/ml in 10 mM sodium phosphate buffer (NAPB), pH 7.4. Each well of 96-well propylene micro titer plates (Costar, Cambridge, MA, USA) was filled with 90 µl of the diluted cell suspension and 10 µl of serially diluted peptide samples. After incubation for 3 h, fresh medium (trypticase soy broth for bacteria and Saboraud' medium for fungi) was added to the mixture and incubated at 37°C (bacteria) or 30°C (fungi) for an additional 12 h. Inhibition of growth was determined by measuring the absorbance at 620 nm with a Model 550 Microplate Reader (Bio-Rad, Hercules, CA, USA). […] The MIC values were calculated as an average of two independent experiments performed in triplicate.
# (§2) ^a To determine the effect of protease digestion on the antimicrobial activity of Buf IIIb-L, synthetic Buf IIIb-L was first incubated with pepsin, trypsin, or chymotrypsin. After incubation at 37 °C for 30 min, the antimicrobial activity of the digested peptide was determined against eight representative microorganisms, including Gram-positive and Gram-negative bacteria and fungi, as described in Materials and Methods.
# [2] = system: Candida albicans (ATCC 10231); conditions: ATCC 10231, 3 h; for MIC: pH 7.4
# Description: as §1, §2
# [3] = system: Escherichia coli (ATCC 27325); conditions: ATCC 27325, 3 h; for MIC: pH 7.4
# Description: as §1, §2
# [4] = system: Pseudomonas putida (ATCC 17426); conditions: ATCC 17426, 3 h; for MIC: pH 7.4
# Description: as §1, §2
# [5] = system: Saccharomyces cerevisiae (ATCC 44774); conditions: ATCC 44774, 3 h; for MIC: pH 7.4
# Description: as §1, §2
# [6] = system: Salmonella enteritidis (ATCC 13076); conditions: ATCC 13076, 3 h; for MIC: pH 7.4
# Description: as §1, §2
# [7] = system: Staphylococcus aureus (ATCC 15752); conditions: ATCC 15752, 3 h; for MIC: pH 7.4
# Description: as §1, §2
# [8] = system: Streptococcus mutans (ATCC 25175); conditions: ATCC 25175, 3 h; for MIC: pH 7.4
# Description: as §1, §2
# [9] = system: eight representative microorganisms, including Gram-positive and Gram-negative bacteria and fungi; conditions: 3 h
# Description: as §1
# [10] = system: Listeria monocytogenes (ATCC 15313); conditions: ATCC 15313, 3 h
# Description: as §1, with “After incubation for 3 h, fresh medium (trypticase soy broth for bacteria and Saboraud' medium for fungi) was added to the mixture and incubated at 37°C (bacteria) or 30°C (fungi) for an additional 12 h.” left out
# Antimicrobial activities of the pepsin-digested peptide mixtures obtained from E. coli cells with surface-expressed LO-Bn fusion proteins were tested against two oral infectious pathogens, Salmonella enteritidis (ATCC 13076) and Listeria monocytogenes (ATCC 15313) as described above except using 10 µl of the 20-fold diluted peptide mixtures obtained from 1×10^11 E. coli cells with surface-expressed LO-Bn fusion proteins instead of synthetic peptide. Growth of cells was determined by measuring absorbance at 620 nm with a Model 550 Microplate Reader (Bio-Rad). […]
smiles,measurement,setting,value
CC[C@H](C)[C@H](NC(=O)[C@@H]1CCCN1C(=O)[C@H](Cc1c[nH]c2ccccc12)NC(=O)[C@H](CCC(N)=O)NC(=O)[C@H](CCCNC(=N)N)NC(=O)[C@@H](NC(=O)[C@@H](NC(=O)[C@@H](N)CCCNC(=N)N)C(C)C)C(C)C)C(=O)NCC(=O)N[C@@H](CCCNC(=N)N)C(=O)N[C@H](C(=O)N[C@H](C(=O)N[C@@H](CCCNC(=N)N)C(=O)N[C@@H](CCCNC(=N)N)C(=O)N[C@H](C(=O)N[C@H](C(=O)N[C@@H](CCCNC(=N)N)C(=O)N[C@@H](CCCNC(=N)N)C(=O)N[C@H](C(=O)N[C@H](C(=O)N[C@@H](CCCNC(=N)N)C(=O)N[C@@H](Cc1ccc(O)cc1)C(=O)O)C(C)C)C(C)C)C(C)C)C(C)C)C(C)C)C(C)C [Buf IIIb-Y] (H-RVVRQWPIGRVVRRVVRRVVRY-OH),MIC,[1],2 mg/L
same,MIC,[2],4 mg/L
same,MIC,[3],4 mg/L
same,MIC,[4],2 mg/L
same,MIC,[5],1 mg/L
same,MIC,[6],2 mg/L
same,MIC,[7],2 mg/L
same,MIC,[8],2 mg/L
"CC(C)C[C@H](NC(=O)CNC(=O)[C@H](C)NC(=O)[C@@H](N)CCCNC(=N)N)C(=O)N[C@@H](CCC(N)=O)C(=O)N[C@@H](Cc1ccccc1)C(=O)N1CCC[C@H]1C(=O)N[C@H](C(=O)NCC(=O)N[C@@H](CCCNC(=N)N)C(=O)N[C@@H](CC(C)C)C(=O)N[C@@H](CC(C)C)C(=O)N[C@@H](CCCNC(=N)N)C(=O)N[C@@H](CCCNC(=N)N)C(=O)N[C@@H](CC(C)C)C(=O)N[C@@H](CC(C)C)C(=O)N[C@@H](CCCNC(=N)N)C(=O)N[C@@H](CCCNC(=N)N)C(=O)N[C@@H](CC(C)C)C(=O)N[C@@H](CC(C)C)C(=O)N[C@@H](CCCNC(=N)N)C(=O)O)C(C)C [Buforin llb, reference compound] (H-RAGLQFPVGRLLRRLLRRLLR-OH; N-terminus and C-terminus assumed)",MIC,[1],1 mg/L
same,MIC,[2],2 mg/L
same,MIC,[3],1 mg/L
same,MIC,[4],2 mg/L
same,MIC,[5],2 mg/L
same,MIC,[6],2 mg/L
same,MIC,[7],2 mg/L
same,MIC,[8],2 mg/L
CC[C@H](C)[C@H](NC(=O)[C@@H]1CCCN1C(=O)[C@H](Cc1c[nH]c2ccccc12)NC(=O)[C@H](CCC(N)=O)NC(=O)[C@H](CCCNC(=N)N)NC(=O)[C@@H](NC(=O)[C@@H](NC(=O)[C@@H](N)CCCNC(=N)N)C(C)C)C(C)C)C(=O)NCC(=O)N[C@@H](CCCNC(=N)N)C(=O)N[C@H](C(=O)N[C@H](C(=O)N[C@@H](CCCNC(=N)N)C(=O)N[C@@H](CCCNC(=N)N)C(=O)N[C@H](C(=O)N[C@H](C(=O)N[C@@H](CCCNC(=N)N)C(=O)N[C@@H](CCCNC(=N)N)C(=O)N[C@H](C(=O)N[C@H](C(=O)N[C@@H](CCCNC(=N)N)C(=O)N[C@@H](Cc1ccccc1)C(=O)O)C(C)C)C(C)C)C(C)C)C(C)C)C(C)C)C(C)C [Buf IIIb-F] (H-RVVRQWPIGRVVRRVVRRVVRF-OH),MIC,[1],2 mg/L
same,MIC,[2],0.5 mg/L
same,MIC,[3],4 mg/L
same,MIC,[4],4 mg/L
same,MIC,[5],0.5 mg/L
same,MIC,[6],2 mg/L
same,MIC,[7],2 mg/L
same,MIC,[8],2 mg/L
CC[C@H](C)[C@H](NC(=O)[C@@H]1CCCN1C(=O)[C@H](Cc1c[nH]c2ccccc12)NC(=O)[C@H](CCC(N)=O)NC(=O)[C@H](CCCNC(=N)N)NC(=O)[C@@H](NC(=O)[C@@H](NC(=O)[C@@H](N)CCCNC(=N)N)C(C)C)C(C)C)C(=O)NCC(=O)N[C@@H](CCCNC(=N)N)C(=O)N[C@H](C(=O)N[C@H](C(=O)N[C@@H](CCCNC(=N)N)C(=O)N[C@@H](CCCNC(=N)N)C(=O)N[C@H](C(=O)N[C@H](C(=O)N[C@@H](CCCNC(=N)N)C(=O)N[C@@H](CCCNC(=N)N)C(=O)N[C@H](C(=O)N[C@H](C(=O)N[C@@H](CCCNC(=N)N)C(=O)O)C(C)C)C(C)C)C(C)C)C(C)C)C(C)C)C(C)C [Buf IIIb] (H-RVVRQWPIGRVVRRVVRRVVR-OH),MIC,[1],2 mg/L
same,MIC,[2],1 mg/L
same,MIC,[3],1 mg/L
same,MIC,[4],1 mg/L
same,MIC,[5],0.5 mg/L
same,MIC,[6],2 mg/L
same,MIC,[7],2 mg/L
same,MIC,[8],2 mg/L
same,"MIC, range over the microorganisms of Table 2",[9],0.5 to 2 mg/L
CC[C@H](C)[C@H](NC(=O)[C@@H]1CCCN1C(=O)[C@H](Cc1c[nH]c2ccccc12)NC(=O)[C@H](CCC(N)=O)NC(=O)[C@H](CCCNC(=N)N)NC(=O)[C@@H](NC(=O)[C@@H](NC(=O)[C@@H](N)CCCNC(=N)N)C(C)C)C(C)C)C(=O)NCC(=O)N[C@@H](CCCNC(=N)N)C(=O)N[C@H](C(=O)N[C@H](C(=O)N[C@@H](CCCNC(=N)N)C(=O)N[C@@H](CCCNC(=N)N)C(=O)N[C@H](C(=O)N[C@H](C(=O)N[C@@H](CCCNC(=N)N)C(=O)N[C@@H](CCCNC(=N)N)C(=O)N[C@H](C(=O)N[C@H](C(=O)N[C@@H](CCCNC(=N)N)C(=O)N[C@@H](CC(C)C)C(=O)O)C(C)C)C(C)C)C(C)C)C(C)C)C(C)C)C(C)C [Buf IIIb-L] (H-RVVRQWPIGRVVRRVVRRVVRL-OH),MIC of Buf IIIb-L digested with Chymotrypsin,[1],>256 mg/L
same,MIC of Buf IIIb-L digested with Pepsin,[1],2 mg/L
same,MIC of Buf IIIb-L digested with Trypsin,[1],>256 mg/L
same,MIC,[1],2 mg/L
same,MIC of Buf IIIb-L digested with Chymotrypsin,[2],>256 mg/L
same,MIC of Buf IIIb-L digested with Pepsin,[2],2 mg/L
same,MIC of Buf IIIb-L digested with Trypsin,[2],>256 mg/L
same,MIC,[2],2 mg/L
same,MIC of Buf IIIb-L digested with Chymotrypsin,[3],>256 mg/L
same,MIC of Buf IIIb-L digested with Pepsin,[3],2 mg/L
same,MIC of Buf IIIb-L digested with Trypsin,[3],>256 mg/L
same,MIC,[3],2 mg/L
same,MIC of Buf IIIb-L digested with Chymotrypsin,[4],>256 mg/L
same,MIC of Buf IIIb-L digested with Pepsin,[4],4 mg/L
same,MIC of Buf IIIb-L digested with Trypsin,[4],>256 mg/L
same,MIC,[4],4 mg/L
same,MIC of Buf IIIb-L digested with Chymotrypsin,[5],>256 mg/L
same,MIC of Buf IIIb-L digested with Pepsin,[5],2 mg/L
same,MIC of Buf IIIb-L digested with Trypsin,[5],>256 mg/L
same,MIC,[5],2 mg/L
same,MIC of Buf IIIb-L digested with Chymotrypsin,[6],>256 mg/L
same,MIC of Buf IIIb-L digested with Pepsin,[6],4 mg/L
same,MIC of Buf IIIb-L digested with Trypsin,[6],>256 mg/L
same,MIC,[6],4 mg/L
same,MIC of Buf IIIb-L digested with Chymotrypsin,[7],>256 mg/L
same,MIC of Buf IIIb-L digested with Pepsin,[7],2 mg/L
same,MIC of Buf IIIb-L digested with Trypsin,[7],>256 mg/L
same,MIC,[7],2 mg/L
same,MIC of Buf IIIb-L digested with Chymotrypsin,[8],>256 mg/L
same,MIC of Buf IIIb-L digested with Pepsin,[8],2 mg/L
same,MIC of Buf IIIb-L digested with Trypsin,[8],>256 mg/L
same,MIC,[8],2 mg/L
same,MIC,[10],2 mg/L
